Assay results reported in patent publication US20120107323A1, “KINASE PROTEIN BINDING INHIBITORS” (University of Florida, priority 2009, published 2012).

Assays:
[1] = tested on: BxPC3 pancreatic cancer cells; assay: Cell viability (MTT), BxPC3; format: cell-based; details: Homo sapiens, BXPC-3; BxPC3, 72 hours; read-out: IC50 of INT2-31, cell viability
Method: Cell viability (MTT) and CFSE Proliferation assay: Cells were plated in 96-well plates and let adhere overnight. After cell treatment, cell viability was measured by 3-(4,5-dimethylthiazol-2-yl)-2,5-diphenyl tetrazolium bromide (MTT) assay (CellTiter 96® Aqueous, Promega, Madison, Wis.).
Cell viability and detachment assays: After cells were treated with siRNA transfection, cell viability was measured by 3-(4,5-dimethylthiazol2-yl)-2,5-diphenyl tetrazolium bromide (MTT) assay (CellTiter 96® AQueous, Promega, Madison, Wis.). Briefly, 20 μl of the tetrazolium compound was added to each well. The cells were then incubated at 37° C. for 1 h. The plate was read at 490 nm with a plate reader to determine the viability. In detachment assays, detached and attached cells were harvested separately and counted in a hemocytometer. The percentage of detachment was calculated by dividing the number of detached cells by the total number of cells. Apoptosis assays: After treatment, attached and detached cells were collected, counted and prepared for terminal uridine deoxynucleotidyl transferase (TUNEL) assay by utilizing an APO-BRDU kit (BD Pharmingen, San Diego, Calif.) according to the manufacturer's instructions. Stained cells were analyzed with a fluorescence-activated cell sorting-Calibur flow cytometer (BD Biosciences). […] Apoptotic cells were also analyzed by Hoechst staining. […]

C8161 melanoma cells [2] = assay: Detachment assay, C8161 cells; format: cell-based, human; details: C8161, 5 μM, 72 h
Method: In detachment assays, detached and attached cells were harvested separately and counted in a hemocytometer. The percentage of detachment was calculated by dividing the number of detached cells by the total number of cells.
Detachment assay: Cells were plated with and without compound for 24, 48, and 72 h, and detached and attached cells were counted in a hemocytometer. The percent of detachment was calculated by dividing the number of detached cells by the total number of cells and experiments performed in triplicate. Apoptosis assays: After treatment, attached and detached cells were collected, counted and prepared for terminal uridine deoxynucleotidyl transferase (TUNEL) assay by utilizing an APO-BRDU kit (BD Pharmingen, San Diego, Calif.) and cells analyzed with a FACSCalibur cytometer (Becton Dickinson, San Jose, Calif.). In addition, apoptotic cells were analyzed with Hoechst 33342 staining (1 μg/ml). The percent of apoptotic cells was calculated as the ratio of apoptotic cells to total number of cells.

C8161 melanoma cells [3] = assay: CFSE cell proliferation assay, C8161; format: cell-based, human; details: effect greater than in A375
Method: For staining with CFSE (Molecular Probes, Eugene, Oreg.)., 1×10^7/ml cells were suspended in PBS and incubated at 37° C. for 5 min with the 10 μM of CFSE. Stained cells were cultured with medium alone or with inhibitor for 24, 48, and 72 hours, fixed and analyzed by a FACS Calibur cytometer (Becton Dickinson, San Jose, Calif.).

C8161 melanoma cells [4] = assay: Cell counts, C8161; format: cell-based, human
[5] = tested on: Miapaca-2 orthotopic xenografts; assay: Orthotopic pancreatic xenograft, Miapaca-2; format: in vivo, mice
Source text: For the orthotopic model of pancreatic cancer, the University of Florida IACUC approved the following protocol (IACUC Study #2000801506). The pancreatic cancer cell lines, Mia paca-2 and Panc-1 cells were stably transfected using luciferase-RFP (red fluorescent protein) reporter gene for in vivo imaging of the xenografts. Following expansion and sorting of RFP positive cells, cells were expanded in culture and 5×10^6 tumor cells were implanted into the pancreas of 20 mice. For intra-pancreatic implantation of cells, mice were anesthetized with Isoflurane using the ACS provided and maintained rodent anesthesia machine. Under sterille surgical conditions, via 1.0 cm incision of the skin, abdominal wall and peritonium, the spleen was retracted and cells were injected in […] into the tail of the pancreas using a 29-gauge needle. The abdominal wall and peritoneum was sutured using 5.0 absorbable surgical sutures and the skin was closed with medical glue (dermabond). Postoperative analgesia was 0.05 mg/kg of buprenorphine subcutaneously per 8-12 hours postoperatively.
Mice were hand restrained prior to intraperitoneal injections. Mice were euthanized 6 weeks after tumor innoculation and tumor and tissue collected. As described below, mice were imaged weekly with the IVIS lumina imager and tumor size was estimated by the bioluminescent signal. […]

CSc1ncnc2c1ccn2C1O[C@H](COP(=O)(O)O)[C@@H](O)[C@H]1O (stereo partly drawn) [INT2-31, 4-(Methylthio)-7-(5-O-phosphono-D-ribofuranosyl)-{7H-Pyrrolo[2,3-d]pyrimidine}]
IC50 [1]: 45.6 µM | cells detached from the plate (C8161 melanoma cells [2]): 7% | cell proliferation (CSFE) (C8161 melanoma cells [3]): inhibited cell proliferation | growth, cell numbers (C8161 melanoma cells [4]): potent time and dose dependent inhibition | growth of the orthotopic pancreatic xenografts ([5]; Miapaca2, daily intraperitoneal 50 mg/kg, 21 days): sufficiently reduced the growth | side effects as measured by body weights and appearances of the animals ([5]; both orthotopic models): without any significant side effects
